The text below walks through data of PubChem BioAssay (NCI).

Some test systems named below: U251 CNS; A498 renal; MDA-MB-231 breast; OVCAR-8 ovarian; UO-31 renal; KM12 colon; NCI/ADR-RES ovarian; SNB-75 CNS; COLO 205 colon; MCF7 breast.
Common to all, as to assay: NCI anticancer screen, dose series, 48 h

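Dose response: 5 concentrations. Exposure: 48 h. Format: 96-well plates. Endpoint: linear interpolation; highest concentration if not reached. TGI marks complete inhibition of growth.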

As to `O=C(C[N+]1(c2ccccc2)CCOCC1)c1ccccc1`, the TGI in the assay with U251 CNS, in the assay on A498 renal, with MDA-MB-231 breast, in the assay on OVCAR-8 ovarian, with UO-31 renal and with KM12 colon was more than 100 µM each time. Moreover, the TGI in the assay with NCI/ADR-RES ovarian and in the assay on SNB-75 CNS was more than 100 µM throughout.

On to `COc1cc(O)c2c(=O)c(O)c(-c3ccc(O)c(O)c3)oc2c1`, for which the TGI in the assay with U251 CNS turned out to be 24.7 µM; in the assay on COLO 205 colon, 32.5 µM; with A498 renal, 14.9 µM; in the assay with MDA-MB-231 breast, 95.8 µM; in the assay with MCF7 breast it was 60.7 µM; in the assay with OVCAR-8 ovarian, 75.9 µM. Further, the TGI came out at 42.1 µM in the assay with UO-31 renal and 32.9 µM in the assay on NCI/ADR-RES ovarian.

Regarding `NNC(=O)COc1nc(-c2cccs2)nc2ccc(I)cc12`, the TGI is 55.8 µM in the assay with U251 CNS; 70.9 µM in the assay on COLO 205 colon; 88.7 µM in the assay on MCF7 breast; more than 100 µM in the assay with OVCAR-8 ovarian; 63.5 µM with UO-31 renal; 41.5 µM in the assay on KM12 colon. The TGI with NCI/ADR-RES ovarian worked out at 91.9 µM; in the assay with SNB-75 CNS it was 59 µM.

Consider `CCOC(=O)c1c(SCCN(CC)CC)n(-c2ccccc2)c(=S)n(-c2ccccc2)c1=O`, for which the TGI with U251 CNS stood at 29.6 µM; in the assay with COLO 205 colon, 6.2 µM; in the assay on A498 renal it was 29 µM; in the assay on MDA-MB-231 breast, 9.04 µM; with OVCAR-8 ovarian, 7.19 µM; in the assay on UO-31 renal, 3.12 µM. The figures for the TGI in the assay on KM12 colon, in the assay with NCI/ADR-RES ovarian and in the assay on SNB-75 CNS were 28.5 µM, more than 100 µM and 23.4 µM, respectively.

As for `CC(C)[C@H](NC(=O)OCc1ccccc1)C(=O)N[C@H](/C=C/C(=O)OC(C)(C)C)CO`, the TGI in the assay with COLO 205 colon, in the assay on A498 renal, in the assay on MDA-MB-231 breast, in the assay with MCF7 breast, in the assay with OVCAR-8 ovarian and in the assay with KM12 colon was more than 100 µM each time. The compound further came in with a TGI in the assay on NCI/ADR-RES ovarian of more than 100 µM.

Regarding `CCOC(=O)c1sc2nc(SC)nc3c2c1NCN3c1ccccc1Cl`, the TGI in the assay on U251 CNS, in the assay with COLO 205 colon, with A498 renal, with MDA-MB-231 breast, in the assay with OVCAR-8 ovarian and in the assay with UO-31 renal was more than 100 µM in each case. The TGI with KM12 colon is more than 100 µM; in the assay on NCI/ADR-RES ovarian it was more than 100 µM; in the assay on SNB-75 CNS it was 64.9 µM.

`C/C(=C\CNc1ncnc2c1ncn2CCC#N)CO`: the TGI in the assay on COLO 205 colon, in the assay on MDA-MB-231 breast, in the assay on MCF7 breast, in the assay with OVCAR-8 ovarian, in the assay with UO-31 renal and in the assay with KM12 colon was more than 100 µM in each case. The TGI in the assay on NCI/ADR-RES ovarian and with SNB-75 CNS was more than 100 µM throughout.

Regarding `CC1=C(C(=O)OC(C)(C)C)C(c2ccc([N+](=O)[O-])cc2)C(C(=O)OC(C)(C)C)=C(C)N1`, the TGI in the assay on U251 CNS was determined as 39.3 µM; in the assay on COLO 205 colon it was 39.8 µM; with A498 renal it was 37.6 µM; with MDA-MB-231 breast it was 41.4 µM; with MCF7 breast, 31.8 µM; with OVCAR-8 ovarian, 42.3 µM. Also, the TGI was found to be 33.5 µM in the assay on UO-31 renal, 38.5 µM in the assay on KM12 colon and 61.2 µM in the assay with SNB-75 CNS.

As to `COc1cc(COC(=O)NC(Cc2cccs2)C(=O)O)c([N+](=O)[O-])cc1OC` (configuration not stated), the TGI in the assay on U251 CNS, in the assay with COLO 205 colon, in the assay on A498 renal, in the assay with MCF7 breast, with OVCAR-8 ovarian and in the assay on UO-31 renal was more than 100 µM throughout. Besides, the TGI with KM12 colon, with NCI/ADR-RES ovarian and in the assay on SNB-75 CNS was more than 100 µM throughout.

As for `COC(=O)C1=C(C)C(=O)C2(CCCCCC2C(=O)OC)C1` (configuration not stated), the TGI with U251 CNS, in the assay with COLO 205 colon, in the assay on A498 renal, in the assay on OVCAR-8 ovarian, with UO-31 renal and in the assay with KM12 colon was more than 100 µM each time. In the assay on SNB-75 CNS, this compound registered a TGI of more than 100 µM.

For the compound `Cc1cccc2c1Oc1ncccc1C2NC(=O)CN(C)C` (configuration not stated), the TGI in the assay on U251 CNS, in the assay with MCF7 breast, with OVCAR-8 ovarian, in the assay with UO-31 renal, with KM12 colon and in the assay with NCI/ADR-RES ovarian was more than 10 µM in each case. In the assay with SNB-75 CNS, the TGI was more than 10 µM.

Regarding `COc1c(-c2nc3nc(N4CCN(C)CC4)ccc3[nH]2)cc(OC)c2c1nc(CCl)n2C`, the TGI worked out at 25.8 µM with U251 CNS; 31.1 µM in the assay on COLO 205 colon; 46.1 µM in the assay on MDA-MB-231 breast; 50.5 µM in the assay with OVCAR-8 ovarian; 32.8 µM in the assay with UO-31 renal; 30.8 µM with KM12 colon. Also, the figures for the TGI in the assay on NCI/ADR-RES ovarian and with SNB-75 CNS were more than 100 µM and 29.8 µM, respectively.

`O=C1C[C@@]23CCC4(CC2=CCC[C@H]3O1)OCCO4`: the TGI in the assay on U251 CNS, in the assay with COLO 205 colon, in the assay on A498 renal, with MDA-MB-231 breast, in the assay with MCF7 breast and with KM12 colon was more than 100 µM throughout. For the same compound, the TGI with NCI/ADR-RES ovarian is more than 100 µM.

As for `O=P1(C(O)c2ccccc2)N(Cc2ccccc2)[C@@H]2CCCC[C@H]2N1Cc1ccccc1` (some centres not stated), the TGI in the assay with U251 CNS was more than 100 µM; with COLO 205 colon, 29.1 µM; in the assay on MDA-MB-231 breast, 53.8 µM; with MCF7 breast, more than 100 µM; with OVCAR-8 ovarian it was more than 100 µM; in the assay on UO-31 renal it was more than 100 µM. Besides, the figures for the TGI in the assay on KM12 colon, in the assay with NCI/ADR-RES ovarian and with SNB-75 CNS were more than 100 µM, more than 100 µM and 55.1 µM, respectively.

`CC(C)(C)OC(=O)NCCCCC1NC(=O)[C@@H]2Cc3c([nH]c4ccccc34)C(c3ccccc3)N2C1=O` (some centres not stated): the TGI in the assay on U251 CNS was more than 100 µM; in the assay with COLO 205 colon, 46.9 µM; in the assay with A498 renal it was more than 100 µM; in the assay on MDA-MB-231 breast, 94.6 µM; in the assay on MCF7 breast, more than 100 µM; in the assay with OVCAR-8 ovarian, more than 100 µM. Moreover, the TGI in the assay with UO-31 renal, in the assay on KM12 colon and in the assay on NCI/ADR-RES ovarian was more than 100 µM each time.
